Data published in US10301284B2, “Therapeutic inhibitory compounds” (LifeSci Pharmaceuticals, Inc., priority 2016, dated 2019).
Read-outs that look alike come from different tables or passages of the source.

Biological target: human Plasma Kallikrein (Homo sapiens (Human), UniProt P03952)
Test: In vitro enzyme inhibition of human plasma kallikrein (Pro-Phe-Arg-AMC cleavage)
Format: biochemical
Summary of the method: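 Human plasma kallikrein preincubated 5 min at 37 °C with compound in 50 mM Tris-HCl pH 7.5, 150 mM NaCl, 0.01% Triton X-100. Reaction started with Pro-Phe-Arg-AMC, fluorescence read every 43 s for 1 h at 37 °C. IC50 from highest mean velocity over 20 reads (~15 min).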

[1] = human plasma kallikrein, PFR-AMC substrate, 37° C., read-out: hPK IC50

Chain of human Plasma Kallikrein (P03952 391-638 limits assumed): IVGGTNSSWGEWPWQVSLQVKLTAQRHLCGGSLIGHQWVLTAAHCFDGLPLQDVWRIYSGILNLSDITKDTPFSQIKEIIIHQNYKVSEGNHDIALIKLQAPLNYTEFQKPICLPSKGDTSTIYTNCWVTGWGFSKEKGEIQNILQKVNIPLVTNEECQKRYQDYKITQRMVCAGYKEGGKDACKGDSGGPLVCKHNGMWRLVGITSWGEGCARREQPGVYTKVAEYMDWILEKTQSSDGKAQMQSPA
Chain of human Plasma Kallikrein (P03952 20-390 partner limits assumed): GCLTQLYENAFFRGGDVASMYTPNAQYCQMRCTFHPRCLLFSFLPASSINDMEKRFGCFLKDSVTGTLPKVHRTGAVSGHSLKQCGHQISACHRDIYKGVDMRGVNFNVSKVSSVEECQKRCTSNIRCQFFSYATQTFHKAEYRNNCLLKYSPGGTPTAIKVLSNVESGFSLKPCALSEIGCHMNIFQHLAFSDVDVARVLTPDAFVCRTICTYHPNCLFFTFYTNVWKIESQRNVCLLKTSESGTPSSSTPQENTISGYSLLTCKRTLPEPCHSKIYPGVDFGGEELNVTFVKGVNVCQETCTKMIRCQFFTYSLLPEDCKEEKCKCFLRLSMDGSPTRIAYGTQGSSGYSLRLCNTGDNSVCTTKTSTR

| Structure (SMILES) | IC50 | IC50 [1] |
| --- | --- | --- |
| Cc1cc(N)nc(C)c1CNC(=O)c1nn(Cc2ccc3ncc(Cl)cc3c2)c2ccnc(Cl)c12 [Example 119, N-((6-amino-2,4-dimethylpyridin-3-yl)methyl)-4-chloro-1-((3-chloroquinolin-6-yl)methyl)-1H-pyrazolo[4,3-c]pyridine-3-carboxamide] | 100 to 1000 nM |  |
| Cc1cc(N)nc(C)c1CNC(=O)c1cn(Cc2cc(C(N)=O)c3ncc(Cl)cc3c2)nc1C#N [Example 72, 6-((4-(((6-amino-2,4-dimethylpyridin-3-yl)methyl)carbamoyl)-3-cyano-1H-pyrazol-1-yl)methyl)-3-chloroquinoline-8-carboxamide] |  | < 100 nM |
| Cc1cc(N)nc(C)c1CNC(=O)c1nn(Cc2ccc3ncc(Cl)cc3c2)cc1[N+](=O)[O-] [Example 18, N-((6-amino-2,4-dimethylpyridin-3-yl)methyl)-1-((3-chloroquinolin-6-yl)methyl)-4-nitro-1H-pyrazole-3-carboxamide] |  | < 100 nM |
| Cc1cc(N)nc(C)c1CNC(=O)c1cn(Cc2ccc3ncc(Cl)cc3c2)c(C(N)=O)n1 [Example 111, N4-((6-amino-2,4-dimethylpyridin-3-yl)methyl)-1-((3-chloroquinolin-6-yl)methyl)-1H-imidazole-2,4-dicarboxamide] |  | 100 to 1000 nM |
| Cc1cc(N)nc(C)c1CNC(=O)c1cn(Cc2ccc3ncc(Cl)cc3c2)c(CN)n1 [Example 112, N-((6-amino-2,4-dimethylpyridin-3-yl)methyl)-2-(aminomethyl)-1-((3-chloroquinolin-6-yl)methyl)-1H-imidazole-4-carboxamide] |  | 100 to 1000 nM |
| Cc1cc(N)nc(C)c1CNC(=O)c1cn(Cc2cc(S(C)(=O)=O)c3ncc(Cl)cc3c2)nc1C#N [Example 68, N-((6-amino-2,4-dimethylpyridin-3-yl)methyl)-1-((3-chloro-8-(methylsulfonyl)quinolin-6-yl)methyl)-3-cyano-1H-pyrazole-4-carboxamide] |  | < 100 nM |
| Cc1cc(N)nc(C)c1CNC(=O)c1nn(Cc2ccc3ncc(Cl)cc3c2)c2ccnc(C#N)c12 [Example 76, N-((6-amino-2,4-dimethylpyridin-3-yl)methyl)-1-((3-chloroquinolin-6-yl)methyl)-4-cyano-1H-pyrazolo[4,3-c]pyridine-3-carboxamide] |  | < 100 nM |
| Cc1cc(N)nc(C)c1CNC(=O)c1cnn(Cc2ccc3ncc(Cl)cc3c2)c1C#N [Example 40, N-((6-amino-2,4-dimethylpyridin-3-yl)methyl)-1-((3-chloroquinolin-6-yl)methyl)-5-cyano-1H-pyrazole-4-carboxamide] |  | 1000 to 10000 nM |
| Cc1nc(N)ccc1CNC(=O)c1nnc(Cc2ccc3ncc(Cl)cc3c2)[nH]1 [Example 97, N-((6-amino-2-methylpyridin-3-yl)methyl)-5-((3-chloroquinolin-6-yl)methyl)-4H-1,2,4-triazole-3-carboxamide] |  | < 100 nM |
| N#Cc1nn(Cc2ccc3ncc(Cl)cc3c2)cc1C(=O)NCc1ccc2[nH]cc(Cl)c2c1F [Example 47, N-((3-chloro-4-fluoro-1H-indol-5-yl)methyl)-1-((3-chloroquinolin-6-yl)methyl)-3-cyano-1H-pyrazole-4-carboxamide] |  | 100 to 1000 nM |
